# Test results from US12668590B2, “Composition and method for treating metabolic disorders” (priority 2016, dated 2026).
# Assays:
# [1] = Aqueous solubility/dissolution of bromocriptine citrate relative to bromocriptine mesylate; format: physicochemical; settings: various pH conditions, compared to bromocriptine mesylate
# Experimental: Solid samples of equal amounts of bromocriptine mesylate and bromocriptine citrate added, under various pH conditions, to equal volumes of water or water/organic solutions in different vessels and the dissolution of the bromocriptine samples (aqueous solubility) was assessed over time.
# [2] = Stability (degradation) of pharmaceutical preparations at 40° C. and 70% relative humidity; format: physicochemical; settings: three-month period, compared to bromocriptine mesylate
# Experimental: Pharmaceutical preparations of bromocriptine mesylate and bromocriptine citrate are exposed to atmospheric conditions (40° C. and 70% relative humidity) and the degradation of the bromocriptine is assessed over time.
substance,measurement,setting,value
2-bromo-alpha-ergocryptine citrate [bromocriptine citrate],rate of dissolution,[1]; solid samples in water or water/organic solutions,dissolve much more quickly
same,aqueous solubility (mg of bromocriptine dissolved per ml of water),[1]; water or water/organic solutions,significantly greater solubility
same,degradation of the bromocriptine,[2],substantially less
